Biological target: T1, human GR (Homo sapiens, UniProt P04150)
T1 sequence (P04150 1-777): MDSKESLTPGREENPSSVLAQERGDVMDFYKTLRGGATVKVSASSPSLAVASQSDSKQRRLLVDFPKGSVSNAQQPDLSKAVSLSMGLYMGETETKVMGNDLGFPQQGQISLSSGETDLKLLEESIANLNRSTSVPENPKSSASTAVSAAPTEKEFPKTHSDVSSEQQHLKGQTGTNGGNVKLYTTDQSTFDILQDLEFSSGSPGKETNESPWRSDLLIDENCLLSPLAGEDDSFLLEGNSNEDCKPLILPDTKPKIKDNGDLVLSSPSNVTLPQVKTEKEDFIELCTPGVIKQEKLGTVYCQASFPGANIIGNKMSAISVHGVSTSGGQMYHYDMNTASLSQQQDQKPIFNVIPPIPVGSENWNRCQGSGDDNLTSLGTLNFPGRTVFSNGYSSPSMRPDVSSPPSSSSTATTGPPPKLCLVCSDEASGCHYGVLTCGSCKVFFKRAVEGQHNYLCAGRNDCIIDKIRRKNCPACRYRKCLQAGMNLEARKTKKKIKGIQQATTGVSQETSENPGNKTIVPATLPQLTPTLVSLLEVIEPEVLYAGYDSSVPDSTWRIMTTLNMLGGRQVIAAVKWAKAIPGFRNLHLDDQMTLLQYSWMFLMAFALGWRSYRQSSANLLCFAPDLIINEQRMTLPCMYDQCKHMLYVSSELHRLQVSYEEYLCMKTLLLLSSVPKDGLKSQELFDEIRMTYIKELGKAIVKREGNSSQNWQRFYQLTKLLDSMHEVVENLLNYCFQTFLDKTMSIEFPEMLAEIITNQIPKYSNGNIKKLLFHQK
Assay: Transrepression Assay (GITAR), TNFα-β-lactamase reporter gene in U937 cells
Type: cell-based
Set-up: U937 cells contain an endogenous glucocorticoid receptor (GR); endogenous in cells; host or cells: U937 cells stably transfected with the TNF-α promoter/β-lactamase reporter only
Settings: U-937; 100 nM dexamethasone = 100% activity; read-out: maximal activity in the transrepression assay
In short: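 Reporter readout used CCF2-AM loading for 70–90 min at room temperature after overnight (~18 h, 37 °C) PMA (5 ng/ml final) and LPS (100 ng/ml final) stimulation of compound-treated (30–45 min) TNFα-β-lactamase U937 cells expressing native GR. Activity was normalised to 100 nM dexamethasone repression.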

Row | Compound | Emax
1 | C[C@]12Cc3cnn(-c4ccc(F)cc4)c3C=C1CC[C@@]2(O)CCc1ccccc1C(=O)N1CC[C@H](F)C1 [Example 54, (4αS,5R)-1-(4-fluorophenyl)-5-[2-(2-{[(3S)-3-fluoropyrrolidin-1-yl]carbonyl}phenyl)ethyl]-4α-methyl-1,4,4α,5,6,7-hexahydrocyclopenta[f]indazol-5-ol] | 5 to 100%
2 | C[C@]12Cc3cnn(-c4ccc(F)cc4)c3C=C1CC[C@@]2(O)CCc1cccc(F)c1CNS(=O)(=O)c1ccccc1C#N [Example 94, 2-cyano-N-(2-fluoro-6-{2-[(4αS,5R)-1-(4-fluorophenyl)-5-hydroxy-4α-methyl-1,4,4α,5,6,7-hexahydrocyclopenta[f]indazol-5-yl]ethyl}benzyl)benzenesulfonamide] | 5 to 100%
3 | CO[C@@]1(CCc2ccc(C(F)(F)F)cc2C(N)=O)CCC2=Cc3c(cnn3-c3ccc(F)cc3)C[C@@]21C [Example 179, 2-{2-[(4αS,5R)-1-(4-fluorophenyl)-5-methoxy-4α-methyl-1,4,4α,5,6,7-hexahydrocyclopenta[f]indazol-5-yl]ethyl}-5-(trifluoromethyl)benzamide] | 5 to 100%
4 | CCNC(=O)c1ccccc1CC[C@]1(O)CCC2=Cc3c(cnn3-c3cccc(F)c3)C[C@@]21C [Example 36, N-ethyl-2-{2-[(4αS,5R)-1-(3-fluorophenyl)-5-hydroxy-4α-methyl-1,4,4α,5,6,7-hexahydrocyclopenta[f]indazol-5-yl]ethyl}benzamide] | 5 to 100%
5 | C[C@]12Cc3cnn(-c4ccc(F)cc4)c3C=C1CC[C@@]2(O)CCc1ccccc1CNC(=O)C1CC1 [Example 4] | 5 to 100%

More lines, now with the values ahead:

Row | Emax | Compound
6 | 5 to 100% | C[C@]12Cc3cnn(-c4ccc(F)cc4)c3C=C1CC[C@@]2(O)CCc1cccc(F)c1C(=O)N1CCC1 [Example 65, (4αS,5R)-5-{2-[2-(azetidin-1-ylcarbonyl)-3-fluorophenyl]ethyl}-1-(4-fluorophenyl)-4α-methyl-1,4,4α,5,6,7-hexahydrocyclopenta[f]indazol-5-ol]
7 | 5 to 100% | C[C@]12Cc3cnn(-c4ccc(F)cc4)c3C=C1CC[C@@]2(O)CCc1ccccc1O [Example 16, (4αS,5R)-1-(4-fluorophenyl)-5-[2-(2-hydroxyphenyl)ethyl]-4α-methyl-1,4,4α,5,6,7-hexahydrocyclopenta[f]indazol-5-ol]
8 | 5 to 100% | Cc1cccc(CC[C@]2(O)CCC3=Cc4c(cnn4-c4ccc(F)cc4)C[C@@]32C)c1C(N)=O [Example 182, 2-{2-[(4αS,5R)-1-(4-fluorophenyl)-5-hydroxy-4α-methyl-1,4,4α,5,6,7-hexahydrocyclopenta[f]indazol-5-yl]ethyl}-6-methylbenzamide]
9 | 5 to 100% | C[C@]12Cc3cnn(-c4ccc(F)cc4)c3C=C1CC[C@@]2(O)CCc1ccccc1C(=O)O [Example 1, 2-{2-[(4αS,5R)-1-(4-Fluorophenyl)-5-hydroxy-4α-methyl-1,4,4α,5,6,7-hexahydrocyclopenta[f]indazol-5-yl]ethyl}benzoic acid]
10 | 5 to 100% | C[C@]12Cc3cnn(-c4ccc(F)cc4)c3C=C1CC[C@@]2(O)CCc1cccc(C(F)(F)F)c1C(N)=O [Example 188, 2-{2-[(4αS,5R)-1-(4-fluorophenyl)-5-hydroxy-4α-methyl-1,4,4α,5,6,7-hexahydrocyclopenta[f]indazol-5-yl]ethyl}-6-(trifluoromethyl)benzamide]
11 | 5 to 100% | CC(C)NC(=O)c1c(F)cccc1CC[C@]1(O)CCC2=Cc3c(cnn3-c3ccc(F)cc3)C[C@@]21C [Example 67, 2-fluoro-6-{2-[(4αS,5R)-1-(4-fluorophenyl)-5-hydroxy-4α-methyl-1,4,4α,5,6,7-hexahydrocyclopenta[f]indazol-5-yl]ethyl}-N-isopropylbenzamide]
12 | 5 to 100% | C[C@]12Cc3cnn(-c4ccc(F)cc4)c3C=C1CC[C@@]2(O)CCc1cccc(F)c1NC(=O)C(F)(F)F [Example 126, 2,2,2-trifluoro-N-(2-fluoro-6-{2-[(4αS,5R)-1-(4-fluorophenyl)-5-hydroxy-4α-methyl-1,4,4α,5,6,7-hexahydrocyclopenta[f]indazol-5-yl]ethyl}phenyl)acetamide]

Reference: patent US8119681B2, “2-[1-phenyl-5-hydroxy or methoxy-4alpha-methyl-hexahydrocyclopenta [ƒ]indazole-5-YL]ethyl phenyl derivatives as glucocorticoid receptor ligands” (Merck Sharp & Dohme Corp., priority 2006, dated 2012)
